Series [1] is described as follows: Inhibition of melanin synthesis in NHEM cells assessed as [14C]thiouracil incorporation after 72 hrs by liquid scintillation counting. The format is functional, cell-based, Homo sapiens. To be noted: Homo sapiens, NHEM, 72 h.
Series [2] can be described thus: Cytotoxicity against NHEM cells assessed as cell viability after 72 hrs by WST-8 assay. It counts as cell-based. To be noted: human.

As to `COc1ccc(-c2oc3c(CC=C(C)C)c(O)c(O)cc3c2C(=O)c2cc3c(c(CC=C(C)C)c2O)O[C@H]2c4ccc(O)c(CC=C(C)C)c4OC[C@@H]32)c(O)c1` [LESPEFLORIN J2], the IC50 in series [1] is more than 52.8 µM. The Activity result in series [2] is recorded as “Non-toxic”.

With `CC(C)=CCc1cc(-c2oc3c(CC=C(C)C)c(O)c(O)cc3c2C(=O)c2cc3c(c(CC=C(C)C)c2O)O[C@H]2c4cc(CC=C(C)C)c(O)cc4OC[C@@H]32)c(O)cc1O` [LESPEFLORIN J3], the half-inhibitory concentration (IC50) in series [1] was 37.7 µM. For the same molecule, in series [2], the Activity entry is “Non-toxic”.

As to `COc1ccc(-c2oc3c(CC=C(C)C)c(O)c(O)cc3c2C(=O)c2cc3c(c(CC=C(C)C)c2O)O[C@H]2c4cc(CC=C(C)C)c(O)cc4OC[C@@H]32)c(O)c1` [LESPEFLORIN J4], the half-inhibitory concentration (IC50) in series [1] is more than 52.8 µM. In addition, the Activity entry in series [2] is on record as “Non-toxic”.

For `CC(C)=CCc1cc([C@@H]2CC(=O)c3c(cc(O)c(CC=C(C)C)c3O)O2)ccc1O` [MACARANGAFLAVANONE B], the IC50 in series [1] came out at 2.59 µM. For the same molecule, the Activity entry in series [2] is on record as “Non-toxic”.

For `CC(C)=CCc1cc([C@@H]2CC(=O)c3cc(CC=C(C)C)c(O)c(CC=C(C)C)c3O2)ccc1O` [PROSTRATOL], in series [1], the 50% inhibitory concentration (IC50) was 0.98 µM. Moreover, the Activity result in series [2] was “Non-toxic”.

The record behind these values is ChEMBL document CHEMBL1151969, “Melanin synthesis inhibitors from Lespedeza floribunda” (J Nat Prod, 2009).
